Measured values as given in EP0294940B1, “Pharmaceutical compositions” (FISONS plc, priority 1987, dated 1988).

Tested on: adenosine monophosphate induced bronchoconstriction
Assay: Attenuation of adenosine monophosphate (AMP) induced bronchoconstriction (Example E)
Format: in vivo, Atopic healthy volunteers
Conditions: AMP dose giving a 40% reduction in pEFR, pretreatment inhaled for five minutes from a Wright Nebuliser
Experimental: Effect of active ingredients A and B, separately and in combination in attenuating adenosine monophosphate induced bronchoconstriction
Atopic healthy volunteers were selected for the study. Prior to the administration of pretreatment, baseline values of forced expiratory volume in one second (FEV₁), partial expiratory flow rate (pEFR) and maximum expiratory flow rate (mEFR) were measured. Measurement was made on at least three occasions or until the readings were stable (less than 5% variation). On each occasion the pretreatment was inhaled for five minutes from a Wright Nebuliser (operating at a flow rate of 7 litres per minute) through the mouth during tidal breathing.
Prior to the commencement of adenosine monophosphate (AMP) challenge FEV₁, pEFR and mEFR were measured. The AMP challenge was performed on each study day by giving doubling doses of AMP, each inhaled for two minutes, from either a Wright Nebuliser (operating at a flow rate of 6.5 litres per minute) or an Acorn Nebuliser (operating at a flow rate of 5.5 litres per minute) until a reduction in pEFR of greater than 40% occurs. The nebuliser chosen for each subject was the same throughout the study. AMP was given in a 1 mg/ml-256 mg/ml concentration range, the diluent being physiological saline. Successive doses were administered at 5 minute intervals. Partial expiratory flow rates were measured at 0.5 and 2.5 minutes after each AMP dose. The dose giving a 40% (PD₄₀) reduction in pEFR was determined by interpolation from a log dose response curve.
The results given in Table 1 were obtained using the procedure of Example E in four volunteers. Ingredient A was nedocromil sodium administered as a 0.5% w/v aqueous solution; ingredient B was atropine methonitrate administered as a 0.2% w/v aqueous solution. The combination was an aqueous solution containing 0.5% w/v nedocromil sodium and 0.2% w/v atropine methonitrate.

Row | SMILES | PD40 (Volunteer 1) | PD40 (Volunteer 2) | PD40 (Volunteer 3) | PD40 (Volunteer 4)
1 | CCCc1c2oc(C(=O)O)cc(=O)c2cc2c(=O)cc(C(=O)O)n(CC)c12 [Ingredient A, nedocromil sodium] | 43 mg/mL | 32 mg/mL | 17 mg/mL | 27 mg/mL
2 | C[N+]1(C)[C@@H]2CC[C@H]1C[C@@H](OC(=O)C(CO)c1ccccc1)C2 (some centres unmarked) [Ingredient B, atropine methonitrate] | 42 mg/mL | 23 mg/mL | 12 mg/mL | 3.4 mg/mL
